Measurements reported in PubChem BioAssay AID2060340 (Molecular Pharmacology Branch, DTP, NCI, 2025).

Test system: 349418-098-R-PDC spheroids, viability, % test/control
Assay: Anticancer human tumor 349418-098-R-PDC patient-derived lung adenocarcinoma cell line growth inhibition [IpAb]
Conditions: spheroids with HUVEC and MSC; for IC50: curve of first compound; for viability, T/C: stronger effect = lower value
In short: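 Multi-cell spheroids of 60% tumour cells, 25% HUVEC and 15% MSC in ultra-low-attachment U-bottom wells, treated with agents combined with ipatasertib or abemaciclib. Half-log ranges top out near clinical Cmax, or 10 microM when Cmax is unknown.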

[1] = second compound 0.01 µM, first compound 0.0316 µM
[2] = second compound 0.01 µM, first compound 0.1 µM
[3] = second compound 0.0316 µM, first compound 0.0316 µM
[4] = second compound 0.0316 µM, first compound 0.1 µM
[5] = second compound 0.1 µM, first compound 0.0316 µM
[6] = second compound 0.1 µM, first compound 0.1 µM
[7] = second compound 0.316 µM, first compound 0.0316 µM
[8] = second compound 0.316 µM, first compound 0.1 µM
[9] = second compound 1 µM, first compound 0.0316 µM
[10] = second compound 1 µM, first compound 0.1 µM
[11] = second compound 0.01 µM, first compound 0.316 µM
[12] = second compound 0.01 µM, first compound 1 µM
[13] = second compound 0.01 µM, first compound 3.16 µM
[14] = second compound 0.01 µM, first compound 10 µM
[15] = second compound 0.0316 µM, first compound 0.316 µM
[16] = second compound 0.0316 µM, first compound 1 µM
[17] = second compound 0.0316 µM, first compound 3.16 µM
[18] = second compound 0.0316 µM, first compound 10 µM
[19] = second compound 0.1 µM, first compound 0.316 µM
[20] = second compound 0.1 µM, first compound 1 µM
[21] = second compound 0.1 µM, first compound 3.16 µM
[22] = second compound 0.1 µM, first compound 10 µM
[23] = second compound 0.316 µM, first compound 0.316 µM
[24] = second compound 0.316 µM, first compound 1 µM
[25] = second compound 0.316 µM, first compound 3.16 µM
[26] = second compound 0.316 µM, first compound 10 µM
[27] = second compound 1 µM, first compound 0.316 µM
[28] = second compound 1 µM, first compound 1 µM
[29] = second compound 1 µM, first compound 3.16 µM
[30] = second compound 1 µM, first compound 10 µM
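Note: spheroids exposed to compounds for 7 days.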

SMILES: CC(C)n1nc(-c2ccc3oc(N)nc3c2)c2c(N)ncnc21 + CCN1CCN(Cc2ccc(Nc3ncc(F)c(-c4cc(F)c5nc(C)n(C(C)C)c5c4)n3)nc2)CC1
- IC50 (second compound 0.01 µM): 0.659 nM
- IC50 (second compound 0.0316 µM): < 0.316 nM
- IC50 (second compound 0.1 µM): < 0.316 nM
- IC50 (second compound 0.316 µM): < 0.316 nM
- IC50 (second compound 1 µM): < 0.316 nM
- viability, T/C (second compound 0.01 µM, first compound 0.000316 µM): 78.5%
- viability, T/C (second compound 0.01 µM, first compound 0.001 µM): 33.8%
- viability, T/C (second compound 0.01 µM, first compound 0.00316 µM): 13.3%
- viability, T/C (second compound 0.01 µM, first compound 0.01 µM): 8.46%
- viability, T/C [1]: 7.29%
- viability, T/C [2]: 6.79%
- viability, T/C (second compound 0.0316 µM, first compound 0.000316 µM): 38.4%
- viability, T/C (second compound 0.0316 µM, first compound 0.001 µM): 22.3%
- viability, T/C (second compound 0.0316 µM, first compound 0.00316 µM): 10.4%
- viability, T/C (second compound 0.0316 µM, first compound 0.01 µM): 6.7%
- viability, T/C [3]: 6.75%
- viability, T/C [4]: 6.38%
- viability, T/C (second compound 0.1 µM, first compound 0.000316 µM): 26.9%
- viability, T/C (second compound 0.1 µM, first compound 0.001 µM): 14.9%
- viability, T/C (second compound 0.1 µM, first compound 0.00316 µM): 10.1%
- viability, T/C (second compound 0.1 µM, first compound 0.01 µM): 7.85%
- viability, T/C [5]: 6.9%
- viability, T/C [6]: 6.67%
- viability, T/C (second compound 0.316 µM, first compound 0.000316 µM): 20.2%
- viability, T/C (second compound 0.316 µM, first compound 0.001 µM): 13.6%
- viability, T/C (second compound 0.316 µM, first compound 0.00316 µM): 9.36%
- viability, T/C (second compound 0.316 µM, first compound 0.01 µM): 7.22%
- viability, T/C [7]: 7.46%
- viability, T/C [8]: 6.4%
- viability, T/C (second compound 1 µM, first compound 0.000316 µM): 14.4%
- viability, T/C (second compound 1 µM, first compound 0.001 µM): 12.4%
- viability, T/C (second compound 1 µM, first compound 0.00316 µM): 8.8%
- viability, T/C (second compound 1 µM, first compound 0.01 µM): 7.28%
- viability, T/C [9]: 7.88%
- viability, T/C [10]: 6.96%

SMILES: CC1(C)CCC(CN2CCN(c3ccc(C(=O)NS(=O)(=O)c4ccc(NCC5CCOCC5)c([N+](=O)[O-])c4)c(Oc4cnc5[nH]ccc5c4)c3)CC2)=C(c2ccc(Cl)cc2)C1 + CCN1CCN(Cc2ccc(Nc3ncc(F)c(-c4cc(F)c5nc(C)n(C(C)C)c5c4)n3)nc2)CC1
- IC50 (second compound 0.01 µM): 1810 nM
- IC50 (second compound 0.0316 µM): 1640 nM
- IC50 (second compound 0.1 µM): < 31.6 nM
- IC50 (second compound 0.316 µM): < 31.6 nM
- IC50 (second compound 1 µM): < 31.6 nM
- viability, T/C [1]: 102%
- viability, T/C [2]: 75%
- viability, T/C [11]: 68.5%
- viability, T/C [12]: 67.8%
- viability, T/C [13]: 42.9%
- viability, T/C [14]: 6.47%
- viability, T/C [3]: 60.8%
- viability, T/C [4]: 56.1%
- viability, T/C [15]: 52.5%
- viability, T/C [16]: 55.4%
- viability, T/C [17]: 44.1%
- viability, T/C [18]: 6.96%
- viability, T/C [5]: 29.8%
- viability, T/C [6]: 32.8%
- viability, T/C [19]: 29%
- viability, T/C [20]: 26.3%
- viability, T/C [21]: 24.2%
- viability, T/C [22]: 6.59%
- viability, T/C [7]: 20.6%
- viability, T/C [8]: 19.6%
- viability, T/C [23]: 21.5%
- viability, T/C [24]: 18.6%
- viability, T/C [25]: 20.6%
- viability, T/C [26]: 4.86%
- viability, T/C [9]: 16.7%
- viability, T/C [10]: 18.6%
- viability, T/C [27]: 16%
- viability, T/C [28]: 17.9%
- viability, T/C [29]: 17%
- viability, T/C [30]: 4.09%

SMILES: CCCS(=O)(=O)Nc1ccc(F)c(C(=O)c2c[nH]c3ncc(-c4ccc(Cl)cc4)cc23)c1F + CCN1CCN(Cc2ccc(Nc3ncc(F)c(-c4cc(F)c5nc(C)n(C(C)C)c5c4)n3)nc2)CC1
- IC50 (second compound 0.01 µM): 91.3 nM
- IC50 (second compound 0.0316 µM): < 31.6 nM
- IC50 (second compound 0.1 µM): < 31.6 nM
- IC50 (second compound 0.316 µM): < 31.6 nM
- IC50 (second compound 1 µM): < 31.6 nM
- viability, T/C [1]: 59.7%
- viability, T/C [2]: 50.3%
- viability, T/C [11]: 32.9%
- viability, T/C [12]: 37.3%
- viability, T/C [13]: 27.6%
- viability, T/C [14]: 16.7%
- viability, T/C [3]: 34.7%
- viability, T/C [4]: 23.7%
- viability, T/C [15]: 27.6%
- viability, T/C [16]: 28.3%
- viability, T/C [17]: 20.8%
- viability, T/C [18]: 11.4%
- viability, T/C [5]: 18.8%
- viability, T/C [6]: 17.6%
- viability, T/C [19]: 17.3%
- viability, T/C [20]: 17.2%
- viability, T/C [21]: 14.2%
- viability, T/C [22]: 8.97%
- viability, T/C [7]: 14.3%
- viability, T/C [8]: 13.6%
- viability, T/C [23]: 12.5%
- viability, T/C [24]: 10.8%
- viability, T/C [25]: 10.5%
- viability, T/C [26]: 9.39%
- viability, T/C [9]: 14.1%
- viability, T/C [10]: 11.8%
- viability, T/C [27]: 11.1%
- viability, T/C [28]: 9.39%
- viability, T/C [29]: 9.24%
- viability, T/C [30]: 7.05%
